Several values for one entry are separate records, joined by “and”; a condition that tells them apart may be missing. Equal entries are not always repeated.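 How tested: cells in 96-well plates exposed to compound for 48 hours at five concentrations. The concentration for 50% growth inhibition is given as GI50. TGI marks complete inhibition of growth.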
How the values were obtained:
Assay in all cases: NCI anticancer screen, dose series, 48 h
A549 NSCLC = tested on: A549 NSCLC
BT-549 breast = tested on: BT-549 breast
KM12 colon = tested on: KM12 colon
LOX IMVI melanoma = tested on: LOX IMVI melanoma
RPMI-8226 leukemia = tested on: RPMI-8226 leukemia
SF-268 CNS = tested on: SF-268 CNS
SK-MEL-5 melanoma = tested on: SK-MEL-5 melanoma
SNB-19 CNS = tested on: SNB-19 CNS
UACC-257 melanoma = tested on: UACC-257 melanoma
A498 renal = tested on: A498 renal

| SMILES | GI50 (A549 NSCLC) | TGI (A549 NSCLC) | GI50 (BT-549 breast) | TGI (BT-549 breast) | GI50 (KM12 colon) | TGI (KM12 colon) | GI50 (LOX IMVI melanoma) | TGI (LOX IMVI melanoma) | GI50 (RPMI-8226 leukemia) | TGI (RPMI-8226 leukemia) | GI50 (SF-268 CNS) | TGI (SF-268 CNS) | GI50 (SK-MEL-5 melanoma) | TGI (SK-MEL-5 melanoma) | GI50 (SNB-19 CNS) | TGI (SNB-19 CNS) | GI50 (UACC-257 melanoma) | TGI (UACC-257 melanoma) | GI50 (A498 renal) | TGI (A498 renal) |
| --- | --- | --- | --- | --- | --- | --- | --- | --- | --- | --- | --- | --- | --- | --- | --- | --- | --- | --- | --- | --- |
| COC(=O)/C(C#N)=C\N1CCN(C(=O)c2ccco2)C1=S | 14.6 µM | 37.7 µM | 4.16 µM | 13.6 µM | 3.3 µM | 12.6 µM | 2.39 µM | 8 µM | 3.3 µM | 62.4 µM | 4.83 µM | 17.9 µM | 14.8 µM | 31 µM | 54.9 µM | > 100 µM | 5.94 µM | 22.5 µM |  |  |
| CCN1CCN(CCOc2ccc(CNc3ccc4nc(CCC5CCCCC5)[nH]c4c3)cc2)CC1 | 2.61 µM | 8.13 µM | 1.58 µM | 3.04 µM | 2.96 µM | 9.82 µM | 1.71 µM | 3.15 µM | 1.43 µM | 3.79 µM | 2 µM | 5.16 µM | 1.73 µM | 3.17 µM | 3.58 µM | 13 µM | 1.85 µM | 4.12 µM | 1.44 µM | 3.35 µM |
| CC1=C(N2CC2)C(=O)C(CO)=C(N2CC2)C1=O |  |  |  | 1.95 µM | 0.0356 µM | 0.337 µM | 0.00307 µM | 0.0226 µM and 0.187 µM | 0.00102 µM | 0.0147 µM and 0.0824 µM | 0.00666 µM |  | 0.0399 µM | 0.162 µM and 0.312 µM | 0.0025 µM |  | 0.0761 µM | 0.527 µM and 2.41 µM | 0.0158 µM | 0.041 µM and 0.22 µM |
| O=S(=O)(NCCNc1nccc(-c2c(-c3cccc(O)c3)nc3sccn23)n1)c1ccc(F)cc1 | 3.51 µM | 36.1 µM | 5.32 µM | 30 µM | 4.36 µM | 16.2 µM | 4.11 µM | 20.1 µM | 4.26 µM | 22.7 µM | 7.51 µM | 42.3 µM | 1.61 µM | 3.98 µM | 16.5 µM | 75.3 µM | 0.568 µM | 16.5 µM | 7.58 µM | 25.2 µM |
| O=C(Nc1cccc(Cl)c1)Nc1cccc(Cl)c1 |  |  | > 100 µM | > 100 µM |  |  | 32 µM | > 100 µM |  |  | > 81.6 µM | > 100 µM | > 100 µM | > 100 µM | > 42.9 µM | > 100 µM | > 100 µM | > 100 µM | 2.87 µM | > 100 µM |
| COc1ccc(Nc2c3ccccc3nc3c2c2ccccc2n3C)cc1 | 17.8 µM | > 100 µM | 11 µM | 43.4 µM | 6.61 µM | 53.3 µM | 7.62 µM | 47.2 µM | 3.77 µM | 24.7 µM | 28 µM | > 100 µM | 14 µM | 37.4 µM | > 100 µM | > 100 µM | 37.5 µM | > 100 µM |  |  |
| COC(=O)[C@]12CC[C@@H](C)[C@H](C)[C@@H]1C1=CC[C@@H]3[C@@]4(C)C[C@@H](OC(=O)c5ccco5)[C@H](O)[C@@](C)(CO)[C@@H]4[C@H](O)C[C@@]3(C)[C@]1(C)CC2 | 2.44 µM | 7.05 µM | 2.41 µM | 5.21 µM | 2.62 µM | 6.77 µM | 1.68 µM | 3.1 µM | 2.55 µM | 7.56 µM | 3.26 µM | 14.2 µM | 1.99 µM | 4.09 µM | 3.47 µM | 15 µM | 2.87 µM | 7.55 µM | 2.5 µM | 7.75 µM |
| Nc1nc(-c2ccccc2)c(-c2ccccc2)c(-c2nc(N)nc(-c3ccccc3)c2-c2ccccc2)n1 |  | > 100 µM |  | > 100 µM |  | > 100 µM |  | > 100 µM |  |  |  | > 100 µM |  | > 100 µM |  | > 100 µM |  | > 100 µM |  | > 100 µM |
| COc1cc(/C=C/C(=O)C(=Cc2ccc(F)c(F)c2)C(=O)/C=C/c2ccc(O)c(OC)c2)ccc1O | 3.34 µM | 16.9 µM | 2.68 µM | 7.13 µM | 1.64 µM | 3.19 µM | 1.95 µM | 4.48 µM | 2.44 µM | 8.29 µM | 2.74 µM | 12.5 µM | 2.18 µM | 5.3 µM | 3.54 µM | 15.9 µM | 1.78 µM | 4.37 µM | 2 µM | 6.95 µM |
| CN(C)CC(C(=O)c1ccccc1)c1ccccc1 (configuration not stated) | 6.76 µM | 20.6 µM | 1.87 µM | 4.39 µM | 1.74 µM | 3.83 µM | 0.765 µM | 2.33 µM | 2.08 µM | 7.49 µM | 3.26 µM | 10.8 µM | 1.57 µM | 3.45 µM | 6.1 µM | 19.4 µM | 1.99 µM | 5.81 µM | 4.44 µM | 18.4 µM |
| COc1cc2c(cc1OC)C(CCc1ccc(Cl)cc1)N(C)CC2 (configuration not stated) | 45.2 µM | > 100 µM | 33.5 µM | > 100 µM | 19.5 µM | 38.1 µM | 15 µM | 30.8 µM | 24.9 µM | > 100 µM | 35 µM | > 100 µM | 14.4 µM | 27.6 µM | 37.1 µM | > 100 µM | 27.2 µM | 65.9 µM |  |  |
| O=C1Cc2cc(CCn3ccnc3)c(Cl)cc2N1 | 7.63 µM | > 100 µM | 9.51 µM | > 100 µM | 3.58 µM | 98.4 µM | 85.3 µM | > 100 µM | 46.2 µM | > 100 µM | 11.2 µM | > 100 µM | 8.12 µM | > 100 µM | 22.1 µM | > 100 µM | 5.65 µM | > 100 µM | 2.19 µM | 61.1 µM |
| CCOc1ccc(Cc2nccc3cc(OCC)c(OCC)cc23)cc1OCC | 5.7 µM | 27.8 µM | 5.16 µM | 19.1 µM | 4.85 µM | 24.5 µM | 2.9 µM | 17 µM | 2.01 µM | 22.4 µM | 11.3 µM | 36.7 µM | 1.61 µM | 4.19 µM | 10.7 µM | 31.8 µM | 3.34 µM | 14.6 µM | 0.763 µM | 19.9 µM |
